Results as given in patent US8927717B1, “Thiochromeno[2,3-c]quinolin-12-one derivatives, preparation method and application thereof” (National Defense Medical Center, priority 2014, dated 2015).

Assays:
Format in all cases: cell-based
SNB-19 = conditions: SNB-19, five dose
RPMI-8226 = system: RPMI-8226
MALME-3M = conditions: Melanoma; 10^−5 molar; 48 hours; SRB
NCI-H460 = system: NCI-H460
786-0 = system: 786-0
HS 578T = system: HS 578T
HL-60(TB) = system: HL-60(TB)
SF-295 = system: SF-295
A498 = system: A498
MCF7 = system: MCF7
HCT-15 = system: HCT-15
MDA-MB-486 = system: MDA-MB-486
UO-31 = system: UO-31
SN12C = system: SN12C
TK-10 = system: TK-10
CCRF-CEM = system: CCRF-CEM
SNB-75 = system: SNB-75
UACC-62 = system: UACC-62
LOX IMVI = system: LOX IMVI
DU-145 = system: DU-145
[1] = Leukemia, 10^−5 molar, 48 hours, SRB
[2] = Homo sapiens, NCI-H460, five dose
[3] = Renal cancer, 10^−5 molar, 48 hours, SRB
[4] = Breast cancer, 10^−5 molar, 48 hours, SRB
[5] = CNS cancer, 10^−5 molar, 48 hours, SRB
[6] = Homo sapiens, SF-295, five dose
[7] = Homo sapiens, HCT-15, five dose
[8] = Homo sapiens, SNB-75, five dose
[9] = Melanoma, 10^−5 molar, 48 hours, SRB
[10] = Homo sapiens, LOX IMVI, five dose

Structure (SMILES): CCNc1nc2ccccc2c2c(=O)c3cc(Cl)ccc3sc12 [Compound N2, 10-Chloro-6-ethylamino-12H-thiochromeno[2,3-c]quinolin-12-one]
- GI50 (SNB-19; Homo sapiens): 26.6 µM
- LC50 (concentration killing 50% of cells) (SNB-19; Homo sapiens): > 100 µM
- TGI (SNB-19): 81.10 µM
- GI50 (RPMI-8226; Homo sapiens, RPMI-8226, five dose): > 100 µM
- CC50 (RPMI-8226; Homo sapiens, RPMI-8226, five dose, read-out: LC50 (the source's name)): > 100 µM
- Growth percent RPMI-8226 (RPMI-8226; [1]): 79.66%
- TGI (RPMI-8226; RPMI-8226, five dose): >100 µM
- Growth percent MALME-3M (MALME-3M): 77.31%
- GI50 (NCI-H460; [2]): > 100 µM
- LC50 (NCI-H460; [2]): > 100 µM
- TGI (NCI-H460; NCI-H460, five dose): >100 µM
- Growth percent NCI-H460 (NCI-H460; Non-small cell lung cancer, 10^−5 molar, 48 hours, SRB): 53.33%
- TGI (786-0; 786-0, five dose): 33.8 µM
- GI50 (786-0; Homo sapiens, 786-0, five dose): 10.5 µM
- CC50 (786-0; Homo sapiens, 786-0, five dose, read-out: LC50 (the source's name)): > 100 µM
- Growth percent 786-0 (786-0; [3]): 23.87%
- Growth percent HS 578T (HS 578T; [4]): 36.37%
- TGI (HS 578T; HS 578T, five dose): 65.5 µM
- GI50 (HS 578T; Homo sapiens, HS 578T, five dose): 9.64 µM
- CC50 (HS 578T; Homo sapiens, HS 578T, five dose, read-out: LC50 (the source's name)): > 100 µM
- TGI (HL-60(TB); HL-60(TB), five dose): >100 µM
- GI50 (HL-60(TB); Homo sapiens, HL-60(TB), five dose): > 100 µM
- CC50 (HL-60(TB); Homo sapiens, HL-60(TB), five dose, read-out: LC50 (the source's name)): > 100 µM
- Growth percent HL-60(TB) (HL-60(TB); [1]): 103.33%
- Growth percent SF-295 (SF-295; [5]): 69.49%
- GI50 (SF-295; [6]): 12.2 µM
- LC50 (SF-295; [6]): > 100 µM
- TGI (SF-295; SF-295, five dose): 35.20 µM
- TGI (A498; A498, five dose): 91.3 µM
- GI50 (A498; Homo sapiens, A498, five dose): 15.3 µM
- CC50 (A498; Homo sapiens, A498, five dose, read-out: LC50 (the source's name)): > 100 µM
- Growth percent A498 (A498; [3]): 61.02%
- Growth percent MCF7 (Table 2: MCF) (MCF7; [4]): 17.54%
- CC50 (MCF7; Homo sapiens, MCF7, five dose, read-out: LC50 (the source's name)): > 100 µM
- TGI (MCF7; MCF7, five dose): >100 µM
- Growth percent HCT-15 (HCT-15; Colon cancer, 10^−5 molar, 48 hours, SRB): 79.72%
- TGI (HCT-15; HCT-15, five dose): >100 µM
- GI50 (HCT-15; [7]): > 100 µM
- LC50 (HCT-15; [7]): > 100 µM
- GI50 (MDA-MB-486; 60 cell, MDA-MB-486, five dose): 0.04 µM
- CC50 (MDA-MB-486; 60 cell, MDA-MB-486, five dose, read-out: LC50 (the source's name)): > 100 µM
- Growth percent MDA-MB-486 (MDA-MB-486; [4]): 26.29%
- TGI (MDA-MB-486; MDA-MB-486, five dose): >100 µM
- GI50 (UO-31; Homo sapiens, UO-31, five dose): 29.4 µM
- CC50 (UO-31; Homo sapiens, UO-31, five dose, read-out: LC50 (the source's name)): > 100 µM
- Growth percent UO-31 (UO-31; [3]): 32.06%
- TGI (UO-31; UO-31, five dose): >100 µM
- GI50 (SN12C; Homo sapiens, SN12C, five dose): 75.3 µM
- CC50 (SN12C; Homo sapiens, SN12C, five dose, read-out: LC50 (the source's name)): > 100 µM
- Growth percent SN12C (SN12C; [3]): 84.57%
- TGI (SN12C; SN12C, five dose): >100 µM
- CC50 (TK-10; Homo sapiens, TK-10, five dose, read-out: LC50 (the source's name)): > 100 µM
- Growth percent TK-10 (TK-10; [3]): 47.11%
- TGI (CCRF-CEM; CCRF-CEM, five dose): >100 µM
- GI50 (CCRF-CEM; Homo sapiens, CCRF-CEM, five dose): > 100 µM
- CC50 (CCRF-CEM; Homo sapiens, CCRF-CEM, five dose, read-out: LC50 (the source's name)): > 100 µM
- Growth percent CCRF-CEM (CCRF-CEM; [1]): 88.62%
- Growth percent SNB-75 (SNB-75; [5]): 12.12%
- GI50 (SNB-75; [8]): 4.96 µM
- LC50 (SNB-75; [8]): 60.2 µM
- TGI (SNB-75; SNB-75, five dose): 22.00 µM
- GI50 (UACC-62; Homo sapiens, UACC-62, five dose): 22.3 µM
- CC50 (UACC-62; Homo sapiens, UACC-62, five dose, read-out: LC50 (the source's name)): > 100 µM
- Growth percent UACC-62 (UACC-62; [9]): 69.06%
- TGI (UACC-62; UACC-62, five dose): >100 µM
- GI50 (LOX IMVI; [10]): > 100 µM
- LC50 (LOX IMVI; [10]): > 100 µM
- TGI (LOX IMVI; LOX IMVI, five dose): >100 µM
- Growth percent LOX IMVI (LOX IMVI; [9]): 80.61%
- TGI (DU-145; DU-145, five dose): >100 µM
- GI50 (DU-145; Homo sapiens, DU-145, five dose): > 100 µM
- CC50 (DU-145; Homo sapiens, DU-145, five dose, read-out: LC50 (the source's name)): > 100 µM
- Growth percent DU-145 (DU-145; Prostate cancer, 10^−5 molar, 48 hours, SRB): 87.67%
